Measurements reported in PMC7275090, “Mode of action of teixobactins in cellular membranes” (Nature Communications, 2020).
Bridge positions count the residues as written; N and C are the ends. Square brackets hold non-standard residues; d marks the D form. Ends that are not written are not given here. d(aIle) = CC[C@H](C)[C@@H](N)C(=O)O; dNMeF = CN[C@H](Cc1ccccc1)C(=O)O

What was measured:
[1] = Isothermal titration calorimetry: LUVs containing Lys-Lipid II titrated into [R4L10]-teixobactin; format: binding; conditions: neutral DOPC membranes, LUVs 2% (mol/mol) Lys-Lipid II, citrate phosphate buffer pH ~6, 37 °C, 65 μM peptide in cell; read-out: equilibrium dissociation constant Kd
Procedure: Preparation of liposomes: For ITC measurements large unilamellar vesicles (LUVs) containing Lys-Lipid II were prepared by incorporating 2% (mol/mol) of Lys-Lipid II in DOPC from the stock solution. The lipids were dried by nitrogen stream and hydrated with 10 mM HEPES, 150 mM NaCl, pH 7.5 buffer to a lipid-phosphate concentration of ~20 mM. LUVs were obtained after 10 rounds of extrusion through 200 nm membrane filters (Whatman Nuclepore, Track-Etch Membranes). The liposomes were dialysed to citrate phosphate buffer (100 mM NaCl, 50 mM citric acid, 100 mM Na2HPO4, pH ~6). Anionic LUVs were prepared by mixing 25% (mol/mol) DOPG and 75% (mol/mol) DOPC and then incorporating 2% (mol/mol) Lys-Lipid II. All other steps were the same as for zwitterionic LUVs.
ITC was performed with the Low Volume NanoITC (Waters LLC, New Castle, DE, USA) to determine interaction between LUVs and [R4L10]-teixobactin. [R4L10]-teixobactin was diluted in a citrate phosphate buffer (100 mM NaCl, 50 mM citric acid, 100 mM Na2HPO4, pH ~6) to a final concentration of 65 μM. Samples were degassed before use. The chamber was filled with 164 μL of [R4L10]-teixobactin, and the LUVs were titrated into the chamber at a rate of 1.96 μL/300 s with a stirring rate of 300 rpm. Experiments were performed at 37 °C and analysed using the Nano Analyse Software (Waters LLC). […]

[2] = ssNMR 15N T1rho relaxation (dynamics of bound teixobactin), Lys-Lipid II; conditions: for Bulk 15N R1rho / Bulk 15N T1rho: 950 MHz, 60 kHz MAS
Procedure: (§1) Relaxation studies: ^1H-detected ^15N T1rho relaxation experiments were carried out at 950 and 700 MHz magnetic field, respectively, using 60 kHz MAS[51]. The ^15N transverse magnetization decay was probed with a ^15N spinlock field of 17.5 kHz. For the bulk, we measured the intensity of the most intense signal at ~8.80 ^1H ppm. T1rho trajectories were fit to single exponentials.
(§2) Lipid I or II-doped multi-laminar vesicle preparations: DOPC or DOPG lipids were mixed with Lipid I or II in 1:1 MeOH:CHCl3 at the final Lipid I or II molar ratio (0–4 mol%/mol). The mixtures were dried and the lipid films were hydrated by vortexing with 2 mL of a teixobactin solution in 40 mM phosphate, 25 mM NaCl, pH 7.0.
(§3) SSNMR samples: MLVs were collected by centrifugation (20,000×g) and loaded into ssNMR rotors. For 3.2 mm rotors, we used 800 nmol of antibiotic with unlabelled Lipid II or I, while we used 400 nmol with labelled Lipid II. For 1.3 mm rotors, samples contained 200 nmol of antibiotic for unlabelled Lipid II or I, while we used 100 nmol for labelled Lipid II. For all ssNMR samples, we used 4 mol%/mol Lipid II or I in the MLVs.

[3] = ssNMR 15N T1rho relaxation (dynamics of bound teixobactin), Lys-Lipid I; conditions: bound to Lys-Lipid I in DOPC (Lys-LI PC), 950 MHz, 60 kHz MAS
Procedure: as §1, §2, §3

[4] = 2D 15N1H ssNMR of bound teixobactin, mDAP-Lipid II vs Lys-Lipid II; format: binding; conditions: DOPC liposomes
Procedure: (§4) 1D, 2D, and 3D ^1H-detected experiments were performed at 60 kHz MAS frequency using magnetic fields of 16.4, 18.8, and 22.2 T (700, 800, and 950 MHz ^1H-frequency) at temperatures of 305 K. All ^1H-detected experiments were dipolar-based. PISSARRO low-power decoupling[47] was used during detection periods. 2D ^13C^13C spin diffusion experiments were performed with PARISxy[48] recoupling at 950 MHz and 15.5, 17, or 18 kHz MAS frequency at 270 K temperature using mixing times of 25–1000 ms. SPINAL64[49] was used in detection periods. The 2D scalar ^13C^13C TOBSY[50] experiment was acquired at 950 MHz with 8 kHz MAS at 295 K temperature with 6 ms ^13C–^13C magnetization transfer time. Chemical shift assignments were performed using standard ^1H-detected 3D CANH and CONH experiments[36],[51] in combination with 2D ^13C^13C PARISxy[48] experiments with different magnetization transfer times (see Supplementary Tables 1 and 2). DNP-enhanced 2D ^13C^13C spin diffusion (20 ms mixing time) ssNMR experiments[52] were carried out using a 263 GHz microwave frequency, 400 MHz ^1H frequency setup (Bruker Biospin) at 100 K temperature and 8.5 kHz MAS.
(§5) Lipid I or II-doped multi-laminar vesicle preparations: DOPC or DOPG lipids were mixed with Lipid I or II in 1:1 MeOH:CHCl3 at the final Lipid I or II molar ratio (0–4 mol%/mol). […]

[5] = 2D 15N1H ssNMR of bound teixobactin, Lys-Lipid I; format: binding; conditions: DOPC liposomes; clear signal changes in the ring motif
Procedure: as §4, §5

[6] = Mobility-edited ssNMR: membrane topology of Lipid II-bound teixobactin; conditions: 2D 1H(1H)13C, 700 MHz, 300 K
Procedure: Topological studies: The mobility-edited 2D ^1H(^1H)^13C experiment[22] was performed at 700 MHz with 16.5 kHz MAS at 300 K temperature using a T2 relaxation filter of 2.5 ms. After dephasing of the rigid signals, magnetization from mobile lipid and water molecules was transferred to the rigid antibiotic with 5 ms ^1H–^1H mixing, and subsequently transferred to ^13C nuclei of [R4L10]-teixobactin with a short (200 μs) cross-polarization step.

[7] = Fluorescence microscopy of GUVs doped with NBD-labelled Lipid II (Lipid II clustering); conditions: 1 μM peptide, 4 h
Procedure: GUVs were prepared using the electroformation method. The GUV cell is a self-assembled system which consists of a 5 mm-thick Teflon plate which is aligned with two titanium electrodes in a closed Teflon chamber. 1.5 μL of 0.5 mM DOPC doped with NBD-labelled Lipid II (0.1 mol%) were brushed on the electrodes. Next, the chamber was filled with 350 μL 0.1 M sucrose solution; the electrodes dipped in and then connected to a power supply which generated a sine wave of voltage 2.5 V at a frequency of 10 Hz for 90 min. Each microscopy slide (μ-slide 8 well, Ibidi) was covered with 350 μL BSA solution (1 mg/mL). To detach the GUVs from the electrodes the power supply was changed to square wave of voltage 2 V at a frequency of 2 Hz for 15 min. The slides were immersed in 300 μL 0.1 mM glucose solution to which 80 μL of GUVs were added. These were incubated for 4 h with 1 μM [R4L10]-teixobactin and observed by confocal microscopy. Anionic GUVs were prepared using a homemade electroformation setup with ITO coverslips (18 × 18 mm, 15–30 Ω, SPI supplies). On both slips, 3 μL of a chloroform–methanol (1:1, vol/vol) solution containing 1 mM of a 3:1 mixture of DOPC:DOPG (mol/mol) and 0.1 mol% NBD-labelled Lipid II was deposited and dried in a vacuum desiccator. With these slips, the electroformation chamber was assembled and filled with 0.1 M sucrose solution. The GUV cell was connected to the power supply and an alternating current applied (1 V, 10 Hz). GUV formation was carried out overnight.
Microscopy: GUVs were imaged using Zeiss LSM 880 with ×63/1.2NA glycerol objective lens. The NBD label appeared green upon excitation by the 488 nm laser. The emission range for detection was 530–545 nm (λem peak = 539 nm). The brightfield images were used for detection and location of the GUVs without a fluorescent signal and also as a control to observe their shape.

[8] = bound to Lys-LII in DOPC liposomes, 950 MHz/60 kHz MAS
[9] = bound to Lys-Lipid II in DOPC (Lys-LII PC)
[10] = bound to Lys-Lipid II in DOPG (Lys-LII_PG)

## D-Arg4-Leu10-teixobactin ([dNMeF]IS[dR][d(aIle)]IS[dT]ALI; ester 8-C; also: 13C,15N labels at Ile2, Ser3, Ile6, Ser7 and one Ala (residue not fully stated)) [[R4L10]-teixobactin]
[1]
  Kd: 170 nM
[2]; DOPG vs DOPC, ssNMR relaxation
  mobility of Lipid II-bound peptide with increasing anionic membrane charge: stark increase in mobility
[2]; [8]
  15N R1rho, Ala9: 8.95 s⁻¹
  15N R1rho, Ile2: 8.49 s⁻¹
  15N R1rho, Ile6: 7.70 s⁻¹
  15N R1rho, Leu10: 10.67 s⁻¹
  15N R1rho, Ser3: 7.40 s⁻¹
  15N R1rho, Ser7: 6.84 s⁻¹
  15N T1rho, Ala9: 111.70 ms
  15N T1rho, Ile2: 117.80 ms
  15N T1rho, Ile6: 129.90 ms
  15N T1rho, Leu10: 93.72 ms
  15N T1rho, Ser3: 135.20 ms
  15N T1rho, Ser7: 146.10 ms
[2]; [9]
  Bulk 15N R1rho: 9.46 s⁻¹
  Bulk 15N T1rho: 105.70 ms
[2]; [10]
  Bulk 15N R1rho: 29.61 s⁻¹
  Bulk 15N T1rho: 33.77 ms
[3]
  Bulk 15N R1rho: 21.70 s⁻¹
  Bulk 15N T1rho: 46.09 ms
[4]
  ssNMR spectra bound to Lys-Lipid II vs mDAP-Lipid II: gave the same ssNMR spectra
[5]
  binding to Lys-Lipid I: also able to bind Lys-Lipid I
[6]
  membrane localization of Lipid II-bound peptide: localizes at the water–membrane interface with the non-polar residues Ile2 and Ile6 partitioned in the bilayer
[7]; DOPC GUVs, 0.1 mol% NBD-Lipid II
  Lipid II segregation into clusters on GUVs: Lipid II segregated into μm-sized clusters
[7]; DOPC GUVs, brightfield images, cluster sites show slight membrane deformations
  vesicle integrity and morphology after incubation: morphology is maintained
[7]; anionic GUVs 1:3 DOPG:DOPC (mol/mol), 0.1 mol% NBD-Lipid II
  Clustering of Lipid II in anionic membranes: clearly visible
